Experiments:
[1] = system: VERPE; test: Pre-emergence action at 320 g/ha against VERPE; assay type: in vivo, Veronica persica; settings: visual scoring after about 3 weeks vs untreated controls
Source text: (§1) b) Seeds of monocotyledonous and dicotyledonous weed plants and crop plants are placed in plastic or organic planting pots and covered with soil. The compounds of the invention, formulated in the form of wettable powders (WP) or as emulsion concentrates (EC), are then applied onto the surface of the covering soil as aqueous suspension or emulsion with addition of 0.5% additive at a water application rate of 600 l/ha (converted). After the treatment, the pots are placed in a greenhouse and kept under good growth conditions for the trial plants. After about 3 weeks, the effect of the preparations is scored visually in comparison with untreated controls as percentages. For example, 100% activity=the plants have died, 0% activity=like control plants. Tables 13 to 26 below show the effects of selected compounds of the general formula (I) on various harmful plants and at an application rate corresponding to 320 g/ha, which were obtained by the experimental procedure mentioned above.

[2] = system: VIOTR; test: Pre-emergence action at 320 g/ha against VIOTR; assay type: in vivo, Viola tricolor; settings: dosage 320 g/ha
Source text: as §1

[3] = system: AMARE; test: Pre-emergence action at 320 g/ha against AMARE; assay type: in vivo, Amaranthus retroflexus; settings: visual scoring after about 3 weeks vs untreated controls
Source text: as §1

[4] = system: LOLRI; test: Pre-emergence action at 320 g/ha against LOLRI; assay type: in vivo, Lolium rigidum; settings: visual scoring after about 3 weeks vs untreated controls
Source text: as §1

[5] = system: ALOMY; test: Pre-emergence action at 320 g/ha against ALOMY; assay type: in vivo, Alopecurus myosuroides; settings: scored visually after about 3 weeks vs untreated controls (100% = plants have died)
Source text: as §1

[6] = system: POLCO; test: Pre-emergence action at 320 g/ha against POLCO; assay type: in vivo, Fallopia convolvulus (Polygonum convolvulus); settings: visual scoring after about 3 weeks vs untreated controls
Source text: as §1

[7] = system: MATIN; test: Pre-emergence action at 320 g/ha against MATIN; assay type: in vivo, Tripleurospermum inodorum (Matricaria inodora); settings: visual scoring after about 3 weeks vs untreated controls
Source text: as §1

[8] = system: DIGSA; test: Pre-emergence action at 320 g/ha against DIGSA; assay type: in vivo, Digitaria sanguinalis; settings: visual scoring after about 3 weeks vs untreated controls
Source text: as §1

[9] = system: LOLRI; test: Pre-emergence action against LOLRI, 1280 g/ha; assay type: in vivo, Lolium rigidum; settings: visual scoring after about 3 weeks vs untreated controls, 100% = plants have died, 0% = like control plants
Source text: (§2) 1. Pre-Emergence Herbicidal Effect and Crop Plant Compatibility a) Seeds of mono- and dicotyledonous weed plants are placed in plastic pots in sandy loam soil (doubly sown with one species each of mono- or dicotyledonous weed plants per pot) and covered with soil. The compounds of the invention, formulated in the form of wettable powders (WP) or as emulsion concentrates (EC), are then applied onto the surface of the covering soil as aqueous suspension or emulsion with addition of 0.5% additive at a water application rate equivalent to 600 litres per hectare. After the treatment, the pots are placed in a greenhouse and kept under good growth conditions for the trial plants. After about 3 weeks, the effect of the preparations is scored visually in comparison with untreated controls as percentages. For example, 100% activity=the plants have died, 0% activity=like control plants. 1. Pre-Emergence Effectiveness Tables 1 to 12 below show the effects of selected compounds of the general formula (I) according to Tables 1 and 2 on various harmful plants and at an application rate corresponding to 1280 g/ha, which were obtained by the experimental procedure mentioned above.

[10] = system: DIGSA; test: Pre-emergence action against DIGSA, 1280 g/ha; assay type: in vivo, Digitaria sanguinalis; settings: visual scoring after about 3 weeks vs untreated controls, 100% = plants have died, 0% = like control plants
Source text: as §2

[11] = system: SETVI; test: Post-emergence action against SETVI, 1.28 kg/ha; assay type: in vivo, Setaria viridis; settings: dosage 1280 g/ha, visual rating about 3 weeks after treatment vs untreated controls
Procedure: (§3) • a) Seeds of mono- and dicotyledonous weed plants are placed in plastic pots in sandy loam soil (twin sowing with one species each of mono- or dicotyledonous weed plants per pot), covered with soil and cultivated in a greenhouse under controlled growth conditions. 2 to 3 weeks after sowing, the test plants are treated at the one-leaf stage. The compounds of the invention, formulated in the form of wettable powders (WP) or as emulsion concentrates (EC), are applied to the green parts of the plants as aqueous suspension or emulsion with addition of 0.5% additive at a water application rate equivalent to 600 litres per hectare. After the test plants have been kept in the greenhouse under optimum growth conditions for about 3 weeks, the activity of the preparations is rated visually in comparison to untreated controls. For example, 100% activity=the plants have died, 0% activity=like control plants. As shown by the results, compounds of the general formula (I) of the invention, in post-emergence treatment, have very good herbicidal efficacy (90% to 100% herbicidal action) against harmful plants such as Abutilon theophrasti, Digitaria sanguinalis, Echinochloa crus-galli, Matricaria inodora, Poa annua, at an application rate of 1.28 kg of active substance per hectare.

[12] = system: POAAN; test: Pre-emergence action against POAAN, 1280 g/ha; assay type: in vivo, Poa annua; settings: visual scoring after about 3 weeks vs untreated controls, 100% = plants have died, 0% = like control plants
Source text: as §2

[13] = system: AMARE; test: Post-emergence action against AMARE, 1.28 kg/ha; assay type: in vivo, Amaranthus retroflexus; settings: dosage 1280 g/ha, visual rating about 3 weeks after treatment vs untreated controls (100% = plants died)
Procedure: as §3

[14] = system: MATIN; test: Post-emergence action against MATIN, 1.28 kg/ha; assay type: in vivo, Tripleurospermum inodorum (Matricaria inodora); settings: dosage 1280 g/ha, visual rating about 3 weeks after treatment vs untreated controls (100% = plants died)
Procedure: as §3

[15] = system: STEME; test: Post-emergence action against STEME, 1.28 kg/ha; assay type: in vivo, Stellaria media; settings: dosage 1280 g/ha, visual rating about 3 weeks after treatment vs untreated controls (100% = plants died)
Procedure: as §3

[16] = system: AMARE; test: Pre-emergence action against AMARE, 1280 g/ha; assay type: in vivo, Amaranthus retroflexus; settings: scored visually after about 3 weeks vs untreated controls (100% = plants have died)
Source text: as §2

[17] = system: ABUTH; test: Post-emergence action against ABUTH, 1.28 kg/ha; assay type: in vivo, Abutilon theophrasti; settings: dosage 1280 g/ha, visual rating about 3 weeks after treatment vs untreated controls (100% = plants died)
Procedure: as §3

[18] = system: VERPE; test: Pre-emergence action against VERPE, 1280 g/ha; assay type: in vivo, Veronica persica; settings: scored visually after about 3 weeks vs untreated controls (100% = plants have died)
Source text: as §2

[19] = system: ECHCG; test: Post-emergence action against ECHCG, 1.28 kg/ha; assay type: in vivo, Echinochloa crus-galli; settings: dosage 1280 g/ha, visual rating about 3 weeks after treatment vs untreated controls
Procedure: as §3

[20] = system: DIGSA; test: Post-emergence action against DIGSA, 1.28 kg/ha; assay type: in vivo, Digitaria sanguinalis; settings: dosage 1280 g/ha, visual rating about 3 weeks after treatment vs untreated controls
Procedure: as §3

[21] = system: ECHCG; test: Pre-emergence action against ECHCG, 1280 g/ha; assay type: in vivo, Echinochloa crus-galli; settings: visual scoring after about 3 weeks vs untreated controls, 100% = plants have died, 0% = like control plants
Source text: as §2

[22] = system: POAAN; test: Post-emergence action against POAAN, 1.28 kg/ha; assay type: in vivo, Poa annua; settings: dosage 1280 g/ha, visual rating about 3 weeks after treatment vs untreated controls
Procedure: as §3

[23] = system: ALOMY; test: Pre-emergence action against ALOMY, 1280 g/ha; assay type: in vivo, Alopecurus myosuroides; settings: visual scoring after about 3 weeks vs untreated controls, 100% = plants have died, 0% = like control plants
Source text: as §2

[24] = system: MATIN; test: Pre-emergence action against MATIN, 1280 g/ha; assay type: in vivo, Tripleurospermum inodorum (Matricaria inodora); settings: scored visually after about 3 weeks vs untreated controls (100% = plants have died)
Source text: as §2

[25] = system: SETVI; test: Pre-emergence action against SETVI, 1280 g/ha; assay type: in vivo, Setaria viridis; settings: visual scoring after about 3 weeks vs untreated controls, 100% = plants have died, 0% = like control plants
Source text: as §2

[26] = system: STEME; test: Pre-emergence action against STEME, 1280 g/ha; assay type: in vivo, Stellaria media; settings: scored visually after about 3 weeks vs untreated controls (100% = plants have died)
Source text: as §2

[27] = system: VERPE; test: Post-emergence action against VERPE, 1.28 kg/ha; assay type: in vivo, Veronica persica; settings: dosage 1280 g/ha, visual rating about 3 weeks after treatment vs untreated controls (100% = plants died)
Procedure: as §3

[28] = system: LOLRI; test: Post-emergence action against LOLRI, 1.28 kg/ha; assay type: in vivo, Lolium rigidum; settings: dosage 1280 g/ha, visual rating about 3 weeks after treatment vs untreated controls
Procedure: as §3

[29] = system: AVEFA; test: Pre-emergence action at 320 g/ha against AVEFA; assay type: in vivo; settings: visual scoring after about 3 weeks vs untreated controls
Source text: as §1

[30] = system: SETVI; test: Pre-emergence action at 320 g/ha against SETVI; assay type: in vivo, Setaria viridis; settings: visual scoring after about 3 weeks vs untreated controls
Source text: as §1

Row | Structure (SMILES) | Pre-emergence action against VERPE in % [1] [%] | Pre-emergence action against VIOTR in % [2] [%] | Pre-emergence action against AMARE in % [3] [%] | Pre-emergence action against LOLRI in % [4] [%] | Pre-emergence action at 320 g/ha against ALOMY in % [5] [%] | Pre-emergence action against POLCO in % [6] [%] | Pre-emergence action against MATIN in % [7] [%] | Pre-emergence action against DIGSA in % [8] [%] | Pre-emergence action against LOLRI [9] [%] | Pre-emergence action against DIGSA [10] [%] | Pre-emergence action against POAAN [12] [%] | Post-emergence action against MATIN [14] [%] | Pre-emergence action against AMARE [16] [%] | Pre-emergence action against VERPE [18] [%] | Post-emergence action against ECHCG [19] [%] | Post-emergence action against DIGSA [20] [%] | Pre-emergence action against ECHCG [21] [%] | Post-emergence action against POAAN [22] [%] | Pre-emergence action against ALOMY [23] [%] | Pre-emergence action against MATIN [24] [%] | further results
1 | C[C@@H](Oc1nn(-c2ccccc2)c(-c2cccnc2)c1Cl)C(=O)O [VII-042] | 90 | 100 | 100 | 100 | 90 | 100 | 90 |  |  |  |  |  |  |  |  |  |  |  |  |  | 
2 | CCOC(=O)C(F)Oc1nn(-c2ccccc2F)c(-c2ccc(F)nc2)c1Br (centres unmarked) [VII-071-a] | 80 | 100 | 100 | 100 | 80 | 90 | 90 | 90 |  |  |  |  |  |  |  |  |  |  |  |  | 
3 | C#Cc1c(OCC(=O)OCC)nn(-c2ccccc2F)c1-c1ccc(F)nc1 [VII-088] |  |  |  |  |  |  |  |  | 100 | 100 | 100 | 100 | 100 | 100 | 100 | 100 | 100 | 100 | 100 | 100 | Post-emergence action against SETVI [11]: 90%; Post-emergence action against AMARE [13]: 100%; Post-emergence action against STEME [15]: 90%; Post-emergence action against ABUTH [17]: 90%; Pre-emergence action against SETVI [25]: 100%; Pre-emergence action against STEME [26]: 100%
4 | O=C(COc1nn(-c2ccccc2F)c(-c2ccc(F)nc2)c1Br)OCC1CCCO1 (centres unmarked) [VII-090] |  |  |  |  |  |  |  |  | 100 | 100 | 100 | 90 | 100 | 100 | 100 | 100 | 100 | 100 | 100 | 100 | Post-emergence action against VERPE [27]: 100%; Post-emergence action against LOLRI [28]: 90%; Pre-emergence action against SETVI [25]: 100%; Pre-emergence action against STEME [26]: 100%
5 | CCOC(=O)COc1nn(-c2ccccc2)c(-c2ccc(F)nc2)c1Br [VII-116] | 100 | 90 | 100 | 100 | 100 | 90 | 90 | 100 |  |  |  |  |  |  |  |  |  |  |  |  | Pre-emergence action against AVEFA in % [29]: 90%; Pre-emergence action against SETVI in % [30]: 100%
